For 7 compounds, Ki and EC50 results are on record in patent US12723063B2, “GIPR-agonist compounds” (Eli Lilly and Company, priority 2019, dated 2026).

As a reminder, the Ki is the dissociation constant of the complex between target and ligand, obtained from inhibition or displacement. By EC50 is commonly meant the concentration giving half of the maximal effect.

For one assay, the target named is T1, human GLP-1R (Homo sapiens, UniProt P43220).
T1 construct: expressed in transfected cells; crude membranes
T1 sequence (P43220 24-463): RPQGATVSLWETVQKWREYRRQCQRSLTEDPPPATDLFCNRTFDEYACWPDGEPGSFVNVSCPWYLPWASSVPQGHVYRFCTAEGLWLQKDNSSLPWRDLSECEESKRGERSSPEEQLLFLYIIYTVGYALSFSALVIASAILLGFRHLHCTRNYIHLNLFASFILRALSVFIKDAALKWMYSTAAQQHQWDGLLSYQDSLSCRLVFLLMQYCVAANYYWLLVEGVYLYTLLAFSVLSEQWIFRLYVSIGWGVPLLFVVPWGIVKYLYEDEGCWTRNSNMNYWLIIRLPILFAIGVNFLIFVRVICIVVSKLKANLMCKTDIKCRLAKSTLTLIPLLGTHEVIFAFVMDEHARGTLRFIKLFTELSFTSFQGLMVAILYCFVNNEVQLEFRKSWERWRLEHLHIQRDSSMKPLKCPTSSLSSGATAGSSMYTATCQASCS
Description: [125I]-GLP-1 binding, SPA with WGA beads, 0.1% bacitracin. The following applies: geometric mean, read-out: hGLP1R Ki. Summed up: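 Binding buffer was 25 mM HEPES pH 7.4 with 2.5 mM CaCl2, 1 mM MgCl2, 0.1% (w/v) bacitracin, 0.003% Tween-20 and EDTA-free protease inhibitors. Four-parameter regression gave IC50, converted to Ki (geometric mean, SEM, n independent days).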

Assay [1] deals with T2, human glucagon receptor (GcgR) (Homo sapiens, UniProt P47871).
T2 construct: expressed in transfected cells; host or cells: HEK293
T2 sequence (P47871 26-477): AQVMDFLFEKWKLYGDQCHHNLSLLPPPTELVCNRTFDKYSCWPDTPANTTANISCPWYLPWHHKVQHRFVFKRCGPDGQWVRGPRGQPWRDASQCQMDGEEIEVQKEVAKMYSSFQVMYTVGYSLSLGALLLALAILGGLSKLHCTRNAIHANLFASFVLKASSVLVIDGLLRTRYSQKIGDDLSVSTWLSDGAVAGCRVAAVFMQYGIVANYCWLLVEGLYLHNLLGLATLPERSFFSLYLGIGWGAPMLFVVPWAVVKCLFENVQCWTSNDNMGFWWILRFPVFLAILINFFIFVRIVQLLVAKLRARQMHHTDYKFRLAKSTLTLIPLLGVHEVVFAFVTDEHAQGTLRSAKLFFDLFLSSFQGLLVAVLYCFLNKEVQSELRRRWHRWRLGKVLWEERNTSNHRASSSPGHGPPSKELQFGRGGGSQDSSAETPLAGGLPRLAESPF
As to the kind of experiment: cAMP functional assay (HTRF) in HEK293 cells in presence of 0.1% casein. It is filed as cell-based. The following applies: HEK293 cells expressing human GcgR, geometric mean, read-out: hGcgR cAMP Rel EC50 nM (SEM, n).

*1 amine or outer side, *2 acyl side, *3 side chain or, on linkers, in order; H or OH if unused. Where a SMILES comes first, the peptide text is derived from it. Side-chain parts run from the residue outwards. [ ]: non-standard residue; d: D form. The star is where a group is joined. C20 diacid = O=C(O)CCCCCCCCCCCCCCCCCCC(=O)*; γGlu = O=C(O)[C@H](CCC(=O)[*:2])N[*:1]; αMeF = C[C@](N)(Cc1ccccc1)C(=O)O; 4Pal = N[C@@H](Cc1ccncc1)C(=O)O; αMeL = CC(C)C[C@](C)(N)C(=O)O; AEEA = NCCOCCOCC(=O)O; Aib = CC(C)(N)C(=O)O Bounds are passed on as bounds.

For `CC[C@H](C)[C@H](NC(=O)[C@H](CO)NC(=O)[C@H](Cc1ccc(O)cc1)NC(=O)[C@H](CC(=O)O)NC(=O)[C@H](CO)NC(=O)[C@@H](NC(=O)[C@](C)(Cc1ccccc1)NC(=O)[C@@H](NC(=O)CNC(=O)[C@H](CCC(=O)O)NC(=O)C(C)(C)NC(=O)[C@@H](N)Cc1ccc(O)cc1)[C@@H](C)O)[C@@H](C)CC)C(=O)N[C@@H](C)C(=O)N[C@@H](CC(C)C)C(=O)N[C@@H](CC(=O)O)C(=O)N[C@@H](CCCCN)C(=O)N[C@@H](CCCCNC(=O)COCCOCCNC(=O)COCCOCCNC(=O)CC[C@H](NC(=O)CCCCCCCCCCCCCCCCCCC(=O)O)C(=O)O)C(=O)N[C@@H](Cc1c[nH]cn1)C(=O)N[C@@H](CCC(N)=O)C(=O)NC(C)(C)C(=O)N[C@@H](CC(=O)O)C(=O)N[C@@H](Cc1ccccc1)C(=O)N[C@H](C(=O)N[C@@H](CCC(=O)O)C(=O)N[C@@H](Cc1ccncc1)C(=O)N[C@@H](CC(C)C)C(=O)N[C@@H](CC(C)C)C(=O)N[C@@H](CCC(=O)O)C(=O)NCC(=O)NCC(=O)N1CCC[C@H]1C(=O)N[C@@H](CO)C(=O)N[C@@H](CO)C(=O)NCC(=O)N[C@@H](C)C(=O)N1CCC[C@H]1C(=O)N1CCC[C@H]1C(=O)N1CCC[C@H]1C(=O)N[C@@H](CO)C(N)=O)C(C)C` [Example 44] (H-Y[Aib]EGT[αMeF]ISDYSIALDKK([AEEA-AEEA-γGlu-C20 diacid])HQ[Aib]DFVE[4Pal]LLEGGPSSGAPPPS-NH2), the Ki at human GLP-1R was determined as 209 nM. In assay [1], the EC50 was over 5000 nM.
On to `CC[C@H](C)[C@H](NC(=O)[C@H](Cc1ccccc1)NC(=O)[C@@H](NC(=O)CNC(=O)[C@H](CCC(=O)O)NC(=O)C(C)(C)NC(=O)[C@@H](N)Cc1ccc(O)cc1)[C@@H](C)O)C(=O)N[C@@H](CO)C(=O)N[C@@H](CC(=O)O)C(=O)N[C@@H](Cc1ccc(O)cc1)C(=O)N[C@@H](CO)C(=O)N[C@H](C(=O)N[C@@](C)(CC(C)C)C(=O)N[C@@H](CC(C)C)C(=O)N[C@@H](CC(=O)O)C(=O)N[C@@H](CCCCN)C(=O)N[C@@H](CCCCNC(=O)COCCOCCNC(=O)COCCOCCNC(=O)CC[C@H](NC(=O)CCCCCCCCCCCCCCCCCCC(=O)O)C(=O)O)C(=O)N[C@@H](Cc1c[nH]cn1)C(=O)N[C@@H](CCC(N)=O)C(=O)NC(C)(C)C(=O)N[C@@H](CC(=O)O)C(=O)N[C@@H](Cc1ccccc1)C(=O)N[C@H](C(=O)N[C@@H](CCC(=O)O)C(=O)N[C@@H](Cc1ccncc1)C(=O)N[C@@H](CC(C)C)C(=O)N[C@@H](CC(C)C)C(=O)N[C@@H](CCC(=O)O)C(=O)N[C@H](C(=O)NCC(=O)N1CCC[C@H]1C(=O)N[C@@H](CO)C(=O)N[C@@H](CO)C(=O)NCC(=O)N[C@@H](C)C(=O)N1CCC[C@H]1C(=O)N1CCC[C@H]1C(=O)N1CCC[C@H]1C(=O)N[C@@H](CO)C(N)=O)[C@@H](C)O)C(C)C)[C@@H](C)CC` [Example 45] (H-Y[Aib]EGTFISDYSI[αMeL]LDKK([AEEA-AEEA-γGlu-C20 diacid])HQ[Aib]DFVE[4Pal]LLETGPSSGAPPPS-NH2), for which, at human GLP-1R, the Ki was over 909 nM. The EC50 in assay [1] is 1690 nM.
In the same order, the values of `CC[C@H](C)[C@H](NC(=O)[C@H](Cc1ccccc1)NC(=O)[C@@H](NC(=O)CNC(=O)[C@H](CCC(=O)O)NC(=O)C(C)(C)NC(=O)[C@@H](N)Cc1ccc(O)cc1)[C@@H](C)O)C(=O)N[C@@H](CO)C(=O)N[C@@H](CC(=O)O)C(=O)N[C@@H](Cc1ccc(O)cc1)C(=O)N[C@@H](CO)C(=O)N[C@H](C(=O)N[C@@](C)(CC(C)C)C(=O)N[C@@H](CC(C)C)C(=O)N[C@@H](CC(=O)O)C(=O)N[C@@H](CCCCN)C(=O)N[C@@H](CCCCNC(=O)COCCOCCNC(=O)COCCOCCNC(=O)CC[C@H](NC(=O)CCCCCCCCCCCCCCCCCCC(=O)O)C(=O)O)C(=O)N[C@@H](Cc1c[nH]cn1)C(=O)N[C@@H](CCC(N)=O)C(=O)NC(C)(C)C(=O)N[C@@H](CC(=O)O)C(=O)N[C@@H](Cc1ccccc1)C(=O)N[C@H](C(=O)N[C@@H](CCC(=O)O)C(=O)N[C@@H](Cc1ccncc1)C(=O)N[C@@H](CC(C)C)C(=O)N[C@@H](CC(C)C)C(=O)N[C@@H](CCC(=O)O)C(=O)N[C@@H](CCC(N)=O)C(=O)NCC(=O)N1CCC[C@H]1C(=O)N[C@@H](CO)C(=O)N[C@@H](CO)C(=O)NCC(=O)N[C@@H](C)C(=O)N1CCC[C@H]1C(=O)N1CCC[C@H]1C(=O)N1CCC[C@H]1C(=O)N[C@@H](CO)C(N)=O)C(C)C)[C@@H](C)CC` [Example 46] (H-Y[Aib]EGTFISDYSI[αMeL]LDKK([AEEA-AEEA-γGlu-C20 diacid])HQ[Aib]DFVE[4Pal]LLEQGPSSGAPPPS-NH2) are 744 nM and 863 nM.
The like results for `CC[C@H](C)[C@H](NC(=O)[C@H](Cc1ccccc1)NC(=O)[C@@H](NC(=O)CNC(=O)[C@H](CCC(=O)O)NC(=O)C(C)(C)NC(=O)[C@@H](N)Cc1ccc(O)cc1)[C@@H](C)O)C(=O)N[C@@H](CO)C(=O)N[C@@H](CC(=O)O)C(=O)N[C@@H](Cc1ccc(O)cc1)C(=O)N[C@@H](CO)C(=O)N[C@H](C(=O)N[C@@](C)(CC(C)C)C(=O)N[C@@H](CC(C)C)C(=O)N[C@@H](CC(=O)O)C(=O)N[C@@H](CCCCN)C(=O)N[C@@H](CCCCNC(=O)COCCOCCNC(=O)COCCOCCNC(=O)CC[C@H](NC(=O)CCCCCCCCCCCCCCCCCCC(=O)O)C(=O)O)C(=O)N[C@@H](Cc1c[nH]cn1)C(=O)N[C@@H](CCC(N)=O)C(=O)NC(C)(C)C(=O)N[C@@H](CC(=O)O)C(=O)N[C@@H](Cc1ccccc1)C(=O)N[C@H](C(=O)N[C@@H](CCC(=O)O)C(=O)N[C@@H](Cc1ccncc1)C(=O)N[C@@H](CC(C)C)C(=O)N[C@@H](CC(C)C)C(=O)N[C@@H](CCC(=O)O)C(=O)NCC(=O)NCC(=O)N1CCC[C@H]1C(=O)N[C@@H](CO)C(=O)N[C@@H](CO)C(=O)NCC(=O)N[C@@H](C)C(=O)N1CCC[C@H]1C(=O)N1CCC[C@H]1C(=O)N1CCC[C@H]1C(=O)N[C@@H](CO)C(N)=O)C(C)C)[C@@H](C)CC` [Example 47] (H-Y[Aib]EGTFISDYSI[αMeL]LDKK([AEEA-AEEA-γGlu-C20 diacid])HQ[Aib]DFVE[4Pal]LLEGGPSSGAPPPS-NH2) were, in that order, 320 nM and 757 nM.
In the same order, the values of `CC[C@H](C)[C@H](NC(=O)[C@H](Cc1ccccc1)NC(=O)[C@@H](NC(=O)CNC(=O)[C@H](CCC(=O)O)NC(=O)C(C)(C)NC(=O)[C@@H](N)Cc1ccc(O)cc1)[C@@H](C)O)C(=O)N[C@@H](CO)C(=O)N[C@@H](CC(=O)O)C(=O)N[C@@H](Cc1ccc(O)cc1)C(=O)N[C@@H](CO)C(=O)N[C@H](C(=O)N[C@@](C)(CC(C)C)C(=O)N[C@@H](CC(C)C)C(=O)N[C@@H](CC(=O)O)C(=O)N[C@@H](CCCCN)C(=O)N[C@@H](CCCCNC(=O)COCCOCCNC(=O)COCCOCCNC(=O)CC[C@H](NC(=O)CCCCCCCCCCCCCCCCCCC(=O)O)C(=O)O)C(=O)N[C@@H](Cc1c[nH]cn1)C(=O)N[C@@H](CCC(N)=O)C(=O)NC(C)(C)C(=O)N[C@@H](CC(=O)O)C(=O)N[C@@H](Cc1ccccc1)C(=O)N[C@H](C(=O)N[C@@H](CCC(=O)O)C(=O)N[C@@H](Cc1ccncc1)C(=O)N[C@@H](CC(C)C)C(=O)N[C@@H](CC(C)C)C(=O)N[C@@H](C)C(=O)NCC(=O)NCC(=O)N1CCC[C@H]1C(=O)N[C@@H](CO)C(=O)N[C@@H](CO)C(=O)NCC(=O)N[C@@H](C)C(=O)N1CCC[C@H]1C(=O)N1CCC[C@H]1C(=O)N1CCC[C@H]1C(=O)N[C@@H](CO)C(N)=O)C(C)C)[C@@H](C)CC` [Example 48] are 211 nM and 1360 nM.
For `CC[C@H](C)[C@H](NC(=O)[C@H](Cc1ccccc1)NC(=O)[C@@H](NC(=O)CNC(=O)[C@H](CCC(=O)O)NC(=O)C(C)(C)NC(=O)[C@@H](N)Cc1ccc(O)cc1)[C@@H](C)O)C(=O)N[C@@H](CO)C(=O)N[C@@H](CC(=O)O)C(=O)N[C@@H](Cc1ccc(O)cc1)C(=O)N[C@@H](CO)C(=O)N[C@H](C(=O)N[C@@](C)(CC(C)C)C(=O)N[C@@H](CC(C)C)C(=O)N[C@@H](CC(=O)O)C(=O)N[C@@H](CCCCN)C(=O)N[C@@H](CCCCNC(=O)COCCOCCNC(=O)COCCOCCNC(=O)CC[C@H](NC(=O)CCCCCCCCCCCCCCCCC(=O)O)C(=O)O)C(=O)N[C@@H](Cc1c[nH]cn1)C(=O)N[C@@H](CCC(N)=O)C(=O)NC(C)(C)C(=O)N[C@@H](CC(=O)O)C(=O)N[C@@H](Cc1ccccc1)C(=O)N[C@H](C(=O)N[C@@H](CCC(=O)O)C(=O)N[C@@H](Cc1ccncc1)C(=O)N[C@@H](CC(C)C)C(=O)N[C@@H](CC(C)C)C(=O)N[C@@H](C)C(=O)NCC(=O)NCC(=O)N1CCC[C@H]1C(=O)N[C@@H](CO)C(=O)N[C@@H](CO)C(=O)NCC(=O)N[C@@H](C)C(=O)N1CCC[C@H]1C(=O)N1CCC[C@H]1C(=O)N1CCC[C@H]1C(=O)N[C@@H](CO)C(N)=O)C(C)C)[C@@H](C)CC` [Example 49], the Ki on human GLP-1R was determined as 596 nM. For the same compound, the EC50 in assay [1] is 2860 nM.
Turning to `CC[C@H](C)[C@H](NC(=O)[C@H](CO)NC(=O)[C@H](Cc1ccc(O)cc1)NC(=O)[C@H](CC(=O)O)NC(=O)[C@H](CO)NC(=O)[C@@H](NC(=O)[C@](C)(Cc1ccccc1)NC(=O)[C@@H](NC(=O)CNC(=O)[C@H](CCC(=O)O)NC(=O)C(C)(C)NC(=O)[C@@H](N)Cc1ccc(O)cc1)[C@@H](C)O)[C@@H](C)CC)C(=O)N[C@@](C)(CC(C)C)C(=O)N[C@@H](CC(C)C)C(=O)N[C@@H](CC(=O)O)C(=O)N[C@@H](CCCCN)C(=O)N[C@@H](CCCCNC(=O)COCCOCCNC(=O)COCCOCCNC(=O)CC[C@H](NC(=O)CCCCCCCCCCCCCCCCCCC(=O)O)C(=O)O)C(=O)N[C@@H](Cc1c[nH]cn1)C(=O)N[C@@H](CCC(N)=O)C(=O)NC(C)(C)C(=O)N[C@@H](CC(=O)O)C(=O)N[C@@H](Cc1ccccc1)C(=O)N[C@H](C(=O)N[C@@H](CCC(=O)O)C(=O)N[C@@H](Cc1ccncc1)C(=O)N[C@@H](CC(C)C)C(=O)N[C@@H](CC(C)C)C(=O)N[C@@H](C)C(=O)NCC(=O)NCC(=O)N1CCC[C@H]1C(=O)N[C@@H](CO)C(=O)N[C@@H](CO)C(=O)NCC(=O)N[C@@H](C)C(=O)N1CCC[C@H]1C(=O)N1CCC[C@H]1C(=O)N1CCC[C@H]1C(=O)N[C@@H](CO)C(N)=O)C(C)C` [Example 50] (H-Y[Aib]EGT[αMeF]ISDYSI[αMeL]LDKK([AEEA-AEEA-γGlu-C20 diacid])HQ[Aib]DFVE[4Pal]LLAGGPSSGAPPPS-NH2), the Ki on human GLP-1R was found to be 34.9 nM. Further, the EC50 in assay [1] was found to be 371 nM.
